Reference: PubChem BioAssay AID1996
≈ marks a conversion by molar mass, not a printed value.

Conditions: buffer; pH 7.4; 200.0 µM

| SMILES | solubility kinetic |
| --- | --- |
| COCCOc1ccc(C(F)(F)F)cc1NC(=O)COC(=O)c1ccc(N2CCCC2=O)cc1 | 3 µg/mL (≈ 6.24 µM) |
| CCC(=O)Nc1sc(Cc2ccc3c(c2)OCO3)c(C)c1C(N)=O | 5.2 µg/mL (≈ 15 µM) |
| COc1ccc(CNC(=O)COc2cc(O)c3c(c2)OC(C)(C)CC3=O)cc1 | 43.5 µg/mL (≈ 113 µM) |
| COC(=O)c1cc(S(=O)(=O)N(C)C2CCCCC2)cn1C | 45 µg/mL (≈ 143 µM) |
| COc1ccc(/C=C/C(=O)N2CCN(S(=O)(=O)c3ccccc3Br)CC2)cc1OC | 13.6 µg/mL (≈ 27.5 µM) |
| CCCOC(=O)C1=C(C)NC(=O)NC1c1cccc2ccccc12 (stereo not drawn) | < 0.3 µg/mL |
| CC(C)(C)C(=O)O/N=C(\N)c1ccc(Oc2cc(Cl)cc(Cl)c2)c([N+](=O)[O-])c1 | < 0.3 µg/mL |
| Cc1ccc(NC(=O)OCCNC(=O)c2ccncc2)cc1 | 44.4 µg/mL (≈ 148 µM) |
| O=C(COC(=O)/C=C/c1ccccc1)NCCc1ccc(F)cc1 | 3.5 µg/mL (≈ 10.7 µM) |
| C#CCOC(=O)CN1C(=O)c2cccc3cccc(c23)C1=O | < 0.6 µg/mL |
| Cc1ccc2oc(Nc3nc(C)c(C)c(C)n3)nc2c1 | 2.4 µg/mL (≈ 8.94 µM) |
| CCOc1ccc(-c2csc(NC(=O)c3ccco3)n2)cc1 | 2.6 µg/mL (≈ 8.27 µM) |
| O=C(COc1ccc2ccc(=O)oc2c1)N1CCc2ccccc21 | < 0.7 µg/mL |
| CCN(CC)S(=O)(=O)c1ccc(C(=O)O)cc1 | 30.4 µg/mL (≈ 118 µM) |
| CC1(C)C(=O)N(c2ccccc2)C1c1ccccc1O (stereo not drawn) | > 40.1 µg/mL |
| CCOCCCNc1c(CC)c(C)c(C#N)c2nc3ccccc3n12 | 6.5 µg/mL (≈ 19.3 µM) |
| O=C(NCC(c1ccco1)N1CCOCC1)c1ccc(Cl)cc1 (stereo not drawn) | > 50.2 µg/mL |
| Fc1ccc2[nH]c3c(Cl)ncnc3c2c1 | 7.9 µg/mL (≈ 35.6 µM) |
| Cc1cccc(NC2=C(Cl)C(=O)OC2OC(=O)c2ccco2)c1 (stereo not drawn) | 35.1 µg/mL (≈ 105 µM) |
| CCc1ccccc1NC(=O)N1C[C@H]2C[C@@H](C1)c1cccc(=O)n1C2 | > 50.6 µg/mL |
| Cc1ccc(C2NC(=O)c3ccccc3O2)cc1 (stereo not drawn) | 10.6 µg/mL (≈ 44.3 µM) |
| CS(=O)(=O)N1CCN(C(=O)Cc2ccc([N+](=O)[O-])cc2)CC1 | 49 µg/mL (≈ 150 µM) |
| CCOc1ccccc1NC(=O)C(=O)NCCC1=CCCCC1 | < 0.3 µg/mL |
| O=S(=O)(c1cccs1)N1CCN(c2ccc(F)cc2)CC1 | 9.6 µg/mL (≈ 29.4 µM) |

| SMILES | solubility kinetic |
| --- | --- |
| Cc1ccc(NC(=O)N2CCCc3ccccc32)cc1C | 29 µg/mL (≈ 103 µM) |
| CCn1cc(S(=O)(=O)Nc2cc(C(=O)OC)ccc2C)cn1 | > 48.5 µg/mL |
| Cc1ccc(NC(=O)c2cc3ccccc3o2)cc1Cl | < 0.6 µg/mL |
| Cc1cc(=O)c2cc(Br)ccc2n1CC(=O)NCc1ccccc1 | 1.3 µg/mL (≈ 3.37 µM) |
| CCOC(=O)Cn1cnc2scc(-c3ccc(C)c(C)c3)c2c1=O | 22.5 µg/mL (≈ 65.7 µM) |
| Cc1ccc(S(=O)(=O)N(C)CC(=O)N2CCCCCC2)cc1 | 48.4 µg/mL (≈ 149 µM) |
| O=[N+]([O-])c1ccc(-c2cn3ccccc3n2)cc1 | 1.7 µg/mL (≈ 7.11 µM) |
| Cc1ccccc1NCCC(=O)Nc1ccc(F)cc1 | > 40.8 µg/mL |
| CCC(=NCC1CCCO1)c1c(O)n(-c2ccccc2C)c(=O)[nH]c1=O (stereo not drawn) | > 53.6 µg/mL |
| C=CCSc1nc(=O)n2ccc(C)cc2n1 | 31.7 µg/mL (≈ 136 µM) |
| O=C(COC(=O)c1cccnc1Cl)NC1CCCCCC1 | > 46.6 µg/mL |
| Cc1ccc(S(=O)(=O)Nc2ccc3ccccc3n2)cc1 | 33.5 µg/mL (≈ 112 µM) |
| CC1N(C(=O)N(C)C)CCN1S(=O)(=O)c1ccccc1 (stereo not drawn) | > 44.6 µg/mL |
| O=C(CCC(=O)N1CCN(S(=O)(=O)c2ccccc2)CC1)c1ccc(Br)cc1 | 6.9 µg/mL (≈ 14.8 µM) |
| Brc1cccc(-c2cnco2)c1 | 4 µg/mL (≈ 17.9 µM) |
| CCN(C(=O)c1ccco1)C1C2CC3CC(C2)CC1C3 (stereo not drawn) | 26.1 µg/mL (≈ 95.5 µM) |
| Cc1ccc2[nH]c(=O)c3cc(C(=O)NCCC(C)C)sc3c2c1 | < 0.4 µg/mL |
| Cc1ccccc1C(=O)NC1CCCN(Cc2ccccc2F)C1 (stereo not drawn) | 43.2 µg/mL (≈ 132 µM) |
| CCOc1ccc(Nc2nc(N)c([N+](=O)[O-])c(N3CCOCC3)n2)cc1 | 2.4 µg/mL (≈ 6.66 µM) |
| COc1ccc(S(=O)(=O)Nc2cc3c4c(c2)CC(=O)N4CCC3)cc1 | 50 µg/mL (≈ 140 µM) |
| CC(CN1CCCCC1)OC(=O)c1ccc2c(c1)OCCO2.Cl (stereo not drawn) | > 51.3 µg/mL |
| O=C(NCCc1ccc(Cl)cc1)c1cnccn1 | > 39.3 µg/mL |
| COc1ccc(CNC(=O)c2ccc[nH]2)cc1 | > 34.5 µg/mL |
| CC(=O)Nc1ccc(S(=O)(=O)Nc2nc3ccccc3nc2N2CCOCC2)cc1 | > 64.1 µg/mL |

| SMILES | solubility kinetic |
| --- | --- |
| COc1ccc(C(=O)NCC(=O)OCC(=O)NCc2ccco2)cc1 | > 52 µg/mL |
| CC1CCC2(CC1)NC(=O)N(CC(=O)N1CCOCC1)C2=O (stereo not drawn) | > 46.4 µg/mL |
| COCCCNC(=O)c1ccc(-c2nc3ccccc3nc2-c2ccccc2)cc1 | 32.4 µg/mL (≈ 81.5 µM) |
| Nc1ncnc(Oc2cccc3cccnc23)c1[N+](=O)[O-] | 33.8 µg/mL (≈ 119 µM) |
| Cc1ccc(C)c(CN2C(=O)NC3(CCCCCC3)C2=O)c1 | 3.7 µg/mL (≈ 12.3 µM) |
| O/N=C/c1ccn(-c2ccc(Br)cc2)c1 | 2.6 µg/mL (≈ 9.81 µM) |
| CN(C)c1ccc(-n2cccc2/C=C/[N+](=O)[O-])cc1 | < 0.2 µg/mL |
| COc1cc(CNC(=O)c2cnc(C)cn2)cc(OC)c1 | > 43.1 µg/mL |
| O=C1NC(CCc2ccccc2)C(=O)N1CCOc1ccccc1 (stereo not drawn) | 2.5 µg/mL (≈ 7.71 µM) |
| CCOc1cccc(NC(=O)/C(C#N)=C/c2cccnc2)c1 | 31.7 µg/mL (≈ 108 µM) |
| O=C(CN1CCCCCCC1)NC(=O)NC1CCCCC1 | 30.2 µg/mL (≈ 102 µM) |
| Cn1cccc1/C=C1\SC(=Nc2cccc(O)c2)NC1=O | 5.6 µg/mL (≈ 18.7 µM) |
| O=C(COC(=O)C1CC2C=CC1C2)Nc1ccc([N+](=O)[O-])cc1 (stereo not drawn) | > 47.4 µg/mL |
| O=c1c(Cc2ccc(F)cc2)c(O)ccn1CCCn1ccnc1 | > 49.1 µg/mL |
| CCOc1ccc(N(C)S(=O)(=O)c2cnc[nH]2)cc1 | > 42.2 µg/mL |
| COCCCNC(=O)c1ccccc1C(F)(F)F | > 39.2 µg/mL |
| CC1CCCC(C)N1C(=S)SCC(=O)O (stereo not drawn) | > 37.1 µg/mL |
| CC(C)COP(=O)(c1ccc(N(C)C)cc1)C(O)c1cccnc1 (stereo not drawn) | 49.6 µg/mL (≈ 142 µM) |
| C/C(=N/NC(=O)C(C)n1nc(C)c([N+](=O)[O-])c1C)c1ccc(OCC(N)=O)cc1 (stereo not drawn) | > 60.4 µg/mL |
| COc1cc(C)c(NC(=S)NCCCN2CCOCC2)cc1OC | > 53 µg/mL |
| CNC(=S)Nc1cccc([N+](=O)[O-])c1 | > 31.7 µg/mL |
| Cc1ccc(NC(=O)C2=CN3CCS(=O)(=O)N=C3C=C2)cc1 | 12.7 µg/mL (≈ 40 µM) |
| CCS(=O)(=O)N1CCC(C(=O)Nc2cccc(F)c2)CC1 | > 47.2 µg/mL |
| CC1CCCCN1C(=O)COC(=O)c1ccc(N2CCCC2=O)cc1 (stereo not drawn) | > 51.7 µg/mL |

| SMILES | solubility kinetic |
| --- | --- |
| Cc1ccc(NC(=O)c2cnccn2)nc1 | > 32.1 µg/mL |
| C=CCC(=O)N1CCCC(C(=O)c2ccc(Cl)cc2)C1 (stereo not drawn) | 42.5 µg/mL (≈ 146 µM) |
| c1ccc(-c2nc(-c3ccc(-c4ccon4)s3)no2)cc1 | 0.6 µg/mL (≈ 2.03 µM) |
| CC(C)C(=O)Nc1c2c(nn1-c1ccc(F)cc1)CS(=O)(=O)C2 | > 50.6 µg/mL |
| O=C(COc1ccccc1Br)N1CCNC1=O | 42.2 µg/mL (≈ 141 µM) |
| Cc1noc(C)c1C(=O)N(C)Cc1ccccc1 | 34 µg/mL (≈ 139 µM) |
| CC[C@@H]1C(=O)OC[C@@H]1Cc1cncn1C.Cl | > 36.7 µg/mL |
| NS(=O)(=O)c1cccc(NC(=O)C2CC(=O)N(Cc3ccco3)C2)c1 (stereo not drawn) | > 54.5 µg/mL |
| COCCn1c(SCC(=O)N2CCOCC2)nnc1-c1ccco1 | > 52.9 µg/mL |
| CCN1CCCC1CNC(=O)C(=O)Nc1ccccc1 (stereo not drawn) | > 41.3 µg/mL |
| COc1ccccc1C(=O)Nc1cccc2c1CCCC2 | < 0.6 µg/mL |
| Cc1ccc(C2(C)NC(=O)N(CC(=O)Nc3ccc4c(c3)CCC4)C2=O)cc1 (stereo not drawn) | 3.5 µg/mL (≈ 9.27 µM) |
| CCOC(=O)c1c(C)[nH]c(C(=O)COC(=O)c2cc(C)oc2C)c1C | 3 µg/mL (≈ 8.64 µM) |
| CN(CC(=O)Nc1ccccc1Cl)C(=O)COC(=O)c1cccs1 | > 55 µg/mL |
| CCN(CC(=O)NCc1ccc(F)cc1)C(=O)c1cc2ccccc2o1 | 47.2 µg/mL (≈ 133 µM) |
| CC(C)CN1C2CCCC1CC(NC(=S)NCc1ccco1)C2 (stereo not drawn) | > 50.3 µg/mL |
| O=C(c1cccnc1)N1CCN(S(=O)(=O)c2cccs2)CC1 | > 50.6 µg/mL |
| CC(Oc1cccnc1[N+](=O)[O-])C(=O)Nc1ccc(Cl)cn1 (stereo not drawn) | 17 µg/mL (≈ 52.7 µM) |
| CC(Cc1ccccc1)NC(=O)c1cc([N+](=O)[O-])ccc1Cl (stereo not drawn) | 10 µg/mL (≈ 31.4 µM) |
| CN(CC(O)Cn1c2ccccc2c2ccccc21)S(C)(=O)=O (stereo not drawn) | > 49.9 µg/mL |
| O=C(NCc1ccccc1Cl)c1cnccc1C(F)(F)F | > 47.2 µg/mL |
| Cn1ccnc1-c1ccc(-c2nccn2C)cc1 | 33.8 µg/mL (≈ 142 µM) |
| CC(=O)c1ccc(NC(=O)Nc2cccnc2)cc1 | 32.4 µg/mL (≈ 127 µM) |
| COC(=O)[C@H](c1ccccc1Cl)N1CCc2sccc2C1 | 15.1 µg/mL (≈ 46.9 µM) |

| SMILES | solubility kinetic |
| --- | --- |
| CCCc1cc(=O)[nH]c(SCC(=O)Nc2ccc(C(=O)Nc3ccccc3OC)cc2)n1 | 6.7 µg/mL (≈ 14.8 µM) |
| COc1ccc(NC(=O)CCn2cccc2)c(OC)c1 | 36.1 µg/mL (≈ 132 µM) |
| Cc1ccc2[nH]c(=O)c(CN(C(=O)c3cccc([N+](=O)[O-])c3)C(C)(C)C)cc2c1 | 2.9 µg/mL (≈ 7.37 µM) |
| COc1ccc(Cl)cc1NS(=O)(=O)c1cn(C)nc1C | > 47.4 µg/mL |
| CC1CCCCN1Cc1ccc(Cl)nc1 (stereo not drawn) | 15.5 µg/mL (≈ 69 µM) |
| COc1ccc(NC(=O)c2sccc2C)cn1 | > 37.2 µg/mL |
| CCN(CC)C(=O)Oc1ccc(NC(=O)N2CCOCC2)cc1 | > 48.2 µg/mL |
| CC1(C)OC(=O)C(=Cc2ccc[nH]2)C(=O)O1 | 25.4 µg/mL (≈ 115 µM) |
| Cc1ccc(NC(=O)OCCNC(=O)OC(C)C)cc1 | 33.1 µg/mL (≈ 118 µM) |
| Cc1onc(-c2ccccc2Cl)c1C(=O)OCC(=O)N1CCCCC1 | > 54.4 µg/mL |
| CC(=O)OC(C)C[N+](C)(C)C.[Cl-] (stereo not drawn) | > 29.4 µg/mL |
| CCCN=C1CC(C)(C)CC(=O)/C1=C(/O)CCC | 37.5 µg/mL (≈ 149 µM) |
| COc1ccc(CCNC(=O)COC(=O)c2ccc(C)s2)cc1 | 27.6 µg/mL (≈ 82.8 µM) |
| CCc1ccc(N2CC(C(=O)NC3CC3)CC2=O)cc1 (stereo not drawn) | > 40.9 µg/mL |
| Cc1ccccc1C(=O)NCCNC(=O)c1cnccn1 | 35.7 µg/mL (≈ 126 µM) |
| CC(C)C(NS(=O)(=O)c1ccccc1)C(=O)N1CCCCCC1 (stereo not drawn) | > 50.8 µg/mL |
| CC(=O)c1c(C)nc2ccc(C)cc2c1-c1ccccc1 | 22.2 µg/mL (≈ 80.6 µM) |
| O=C(Nc1cccc(S(=O)(=O)N2CCCC2)c1)c1ccncc1 | 46.9 µg/mL (≈ 142 µM) |
| O=c1[nH]c(=O)n(Cc2ccco2)c(O)c1C=NCCN1CCNCC1 | > 52.1 µg/mL |
| COc1cc(/C=C/C(=O)OC(C)C(=O)Nc2ccc(Cl)cn2)ccc1OC(F)F (stereo not drawn) | 2.8 µg/mL (≈ 6.56 µM) |
| O=C(CCC(=O)N1CCCC1)Nc1ccc([N+](=O)[O-])cc1 | 41.3 µg/mL (≈ 142 µM) |
| CCc1ccc(NC(=O)/C(C#N)=C/c2ccncc2)cc1 | 8.8 µg/mL (≈ 31.7 µM) |
